Data published in US8552053B2, “7-substituted indirubin-3′oximes and their applications” (Centre National de la Recherche Scientifique, priority 2005, dated 2013).
Like-named read-outs stand apart in the source and are kept apart here.

Assays:
cytochome C release = assay: Cytochrome C release from mitochondria; details: 12.5 μM, 10 h
SH-SY5Y cells [1] = assay: Nuclear morphology, bisBenzimide and propidium iodide staining; format: cell-based, human; details: 24 h; 10 or 25 μM
Description: Following double staining of DNA with BisBenzimide and propidium iodide, cells were examined by fluorescence microscopy. Thick arrows: apoptosis (nuclear fragmentation); thin arrows: secondary necrosis; arrow heads: pycnotic nuclei. Scale bar: 20 μm. Cell death characterization based on nuclear morphology was assessed by double staining with 0.05 μg/ml bisBenzimide and 25 μg/ml propidium iodide. Cell viability was determined by means of the MTS method. Both procedures have been previously described in detail (Ribas and Boix, 2004).

[2] = tested on: 5 L (AhR+/+) and BP8 (AhR−/−) cells; assay: Cell cycle distribution of 5 L and BP8 cells (FACS); format: cell-based, mouse; details: 10 μM, 24 h
[3] = tested on: AhR-dependent expression of p27^Kip1; assay: p27Kip1 expression in 5 L and BP8 hepatoma cells (Western blotting); format: cell-based, mouse; details: 10 μM, 24 h
Description: Actin Western blotting was used as a loading control. […] Average±s.e. of three determinations. […] Karlsruhe, Institute of Genetics, 76021 Karlsruhe, Germany). […] 6.8, 1 mM EDTA, 2% SDS.

[4] = tested on: 5 L (AhR+/+) and BP8 (AhR−/−) cells; details: 24 h
p53 = p53 expression, Western blotting; details: SH-SY5Y cells, 12.5 μM
SH-SY5Y cells [5] = assay: DNA laddering (internucleosomal fragmentation); format: cell-based, human; details: 25 μM, 24 h
Description: (§1) Cell death characterization based on nuclear morphology was assessed by double staining with 0.05 μg/ml bisBenzimide and 25 μg/ml propidium iodide. Cell viability was determined by means of the MTS method. Both procedures have been previously described in detail (Ribas and Boix, 2004). For evaluation of DNA laddering, cell DNA was extracted and electrophoresed in 1.5% agarose gels to evidence the internucleosomal fragmentation typical of apoptosis.

SH-SY5Y cells [6] = assay: SH-SY5Y cell survival, MTS reduction assay; format: cell-based, human
Description: (§2) SH-SY5Y, IMR-5 and IMR-32 human neuroblastoma cell lines were grown in DMEM medium from (Biowhittaker) plus 2 mM L-glutamine from Eurobio (Courtaboeuf, France) or DMEM already supplemented with 2 mM L-glutamine (Invitrogen, Barcelona, Spain), plus antibiotics and a 10% volume of FCS (Invitrogen, Cergy Pontoise, France or Barcelona, Spain). SH-SY5Y cell lines permanently transfected with pcDNA3/Bcl-2, pcDNA3/Bcl-XL and empty pcDNA3 vectors were grown like their untransfected counterparts. However, Geneticin (G-418) selection was maintained in the growing cultures before the terminal experiments (Ribas and Boix, 2004). In order to induce differentiation, SH-SY5Y cells were cultured on collagen coated plates and treated with 10 μM RA for five days.
as §1
The effects of each indirubin was tested, at a 25 μM final concentration, on the survival of the neuroblastoma SH-SY5Y cell line after 24 h or 48 h exposure.

p21^Cip1 = assay: p21Cip1 expression, Western blotting; details: SH-SY5Y cells, 12.5 μM, 12 h
[7] = tested on: wild-type HCT-116 and HCT-116 sub-clones deprived of p53; assay: Survival of wild-type and p53-deprived HCT-116 cells, MTS; format: cell-based, human; details: 24 h
Description: Average±s.e. of three determinations. HCT116 human adenocarcinoma cell line were obtained from Dr. Vogelstein (The Howard Hughes Medical Institute, Sidney Kimmel Comprehensive Cancer Center, The Johns Hopkins School of Medicine, Baltimore, Md. 21231, USA). HCT116 cells were cultured in McCoy's 5A (Biowhittaker) supplemented with antibiotics and 10% FCS. General culture conditions were an atmosphere of 5% CO2 and a temperature of 37° C. Culture dishes and other plastic disposable tools were supplied by Corning (Corning, N.Y., USA). Indirubin treatments were performed on exponentially growing cultures at the indicated time and concentrations. Control experiments were carried also using appropriate dilutions of DMSO.

[8] = tested on: SH-SY5Y cells transfected with pcDNA3/Bcl-2 or pcDNA3/Bcl-XL; assay: Viability of Bcl-2 / Bcl-XL overexpressing SH-SY5Y cells, MTS; format: cell-based, human; details: 7BIO 25 μM, STS 2 μM; 9 and 24 h
[9] = tested on: IMR-5, IMR-32, HL-60 and Jurkat cells; assay: Viability of IMR-5, IMR-32, HL-60 and Jurkat cells, MTS; format: cell-based, human; details: 24 h
Description: as §2, with “FIG. 15. […] Every point is the mean±s.e. of three independent experiments with six independent measurements per experiment. […] SH-SY5Y,” for “SH-SY5Y,”, “[…] HL-60 and Jurkat” for “In order to induce differentiation, SH-SY5Y”, “grown in RPMI 1640 medium with 10% FCS” for “cultured on collagen coated plates”, “antibiotics from Invitrogen (Barcelona, Spain).” for “treated with 10 μM RA for five days.”

[10] = tested on: effector caspase activity (DEVDase); assay: Caspase (DEVDase) assay in SH-SY5Y cells; format: cell-based, human; details: 24 h dose-response; time course at 25 μM
Description: The value of control untreated cells is placed at time 0. DEVDase activity was measured as arbitrary fluorescence units. Every point is the mean±s.e. of at least three independent determinations. (B). […] Every point is the mean±s.e. of at least three independent determinations.
(§3) The measurement of caspase activity is based on determining the fluorescence released from the AcDEVDafc synthetic substrate after its direct addition to the culture medium, detergent lysis, and incubation at 37°. This method is devised to be applied to 96 multiwell plates. It allows kinetic determinations of caspase activation and the characterization of multiple drugs simultaneously. (Ribas et al., 2005).

CDK5/p25 = CDK5/p25 (Homo sapiens, UniProt Q00535); assay: CDK5/p25 kinase assay; format: biochemical, mammalian
Sequence of CDK5/p25 (Q00535 whole entry, species assumed): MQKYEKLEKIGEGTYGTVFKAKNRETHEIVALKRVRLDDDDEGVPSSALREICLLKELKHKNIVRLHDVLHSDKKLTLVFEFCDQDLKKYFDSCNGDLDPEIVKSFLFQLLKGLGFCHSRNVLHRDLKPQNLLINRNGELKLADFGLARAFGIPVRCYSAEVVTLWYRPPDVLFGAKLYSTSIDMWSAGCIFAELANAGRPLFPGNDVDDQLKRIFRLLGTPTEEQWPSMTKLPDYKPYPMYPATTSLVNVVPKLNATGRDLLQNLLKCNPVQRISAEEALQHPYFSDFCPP
Sequence of CDK5/p25 (Q15078 99-307 partner limits assumed, species assumed): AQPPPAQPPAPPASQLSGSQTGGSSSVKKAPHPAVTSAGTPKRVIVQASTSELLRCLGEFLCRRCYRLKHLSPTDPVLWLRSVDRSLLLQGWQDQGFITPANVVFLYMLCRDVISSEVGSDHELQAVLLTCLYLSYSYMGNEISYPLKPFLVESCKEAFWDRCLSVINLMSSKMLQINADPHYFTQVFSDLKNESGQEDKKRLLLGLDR

[11] = tested on: SH-SY5Y cells differentiated by retinoic acid; assay: Viability of RA-differentiated versus proliferating SH-SY5Y cells, MTS; format: cell-based, human; details: 24 h; 7BIO 25 μM, STS 1 μM
[12] = tested on: effector caspases (DEVDase activity); assay: Effector caspase activation in IMR-5, IMR-32, HL-60 and Jurkat cells; format: cell-based, human; details: 25 μM, 24 h
Description: FIG. 15. […] Every point is the mean±s.e. of three independent experiments with six independent measurements per experiment. […] Bar value is the mean±s.e. of 6 independent determinations.
as §3

SH-SY5Y cells [13] = assay: SH-SY5Y cell death, LDH release assay; format: cell-based, human; details: IO, 5BIO, 6BIO, 7BIO compared (FIG. 3B)
Description: In addition, cell death was estimated 48 h after the addition of each indirubin (25 μM) using the LDH release assay. As MTS reduction is occasionally observed under conditions different from cell death, an independent cell death evaluation procedure was used, the lactate dehydrogenase (LDH) release assay. This assay confirmed the induction of cell death by the indirubins of the invention, despite their overall lack of effects on CDKs and GSK-3.

SH-SY5Y cells [14] = assay: SH-SY5Y cell survival, MTS reduction assay; format: cell-based, human; remark: listed apart in the source
MDA-MB-231 cells = assay: MDA-MB-231 cell proliferation and cell cycle distribution; format: cell-based, human
Description: MDA-MB-231 cells (derived from hormone-independent breast cancer) were cultured in DMEM supplemented with 10% FCS. For experiments, these cells were seeded in 24-well boxes or in 35 mm Petri dishes at appropriate densities (4.10^4 cells per well for cell growth experiments; 10^5 cells per dish for cell cycle analysis) and exposed to indirubins as indicated.

How did the “release of cytochome C from mitochondria” value (cytochome C release) turn out when “(2′Z,3′E)-7-bromoindirubin-3′-oxime [7BIO]” was run?
Its value is “negligible release”.

And the “nuclear morphology / PI staining” value (SH-SY5Y cells [1])?
Its value is “numerous large, unfragmented pycnotic nuclei”.

What about the “cell cycle distribution of AhR−/− and AhR+/+ cells” value [2] of the same substance?
Its value is “striking AhR-dependent accumulation in G0/G1”.

What about the “AhR-dependent expression of p27^Kip1” value [3] of the same substance?
The value was “potently enhance”.

And the “dose-response curves of cell death in 5 L versus BP8” value [4]?
Its value is “essentially the same”.

What about the “induction of p53” value (p53) of the same substance?
The value was “insignificant”.

And the DNA laddering (SH-SY5Y cells [5])?
The DNA laddering was “no ladder was observed”.

What about the “time required to induce 70% cell death” value (SH-SY5Y cells [6]; 25 μM (FIG. 7)) of the same substance?
The value was ≤ 12 h.

What about the “time to almost complete cell death” value (SH-SY5Y cells [6]; 25 μM (FIG. 7)) of the same substance?
Its value is ≤ 24 h.

And the “effect of Q-VD-Oph on induced cell death” value (SH-SY5Y cells [6]; 25 μM indirubin, 48 h, 10 μM Q-VD-OPh (FIG. 10))?
The value was “no effect”.

And the “cell death inducing activity, position 7 halogen / N1-methyl series (MTS)” value (SH-SY5Y cells [6]; 48 h (FIG. 4))?
The value was “equipotent”.

And the “induction of p21^Cip1 overexpression” value (p21^Cip1)?
The value was “negligible effects”.

And the “dose-response curves, wild-type versus p53-deprived HCT-116” value [7]?
The value was “essentially the same”.

And the “protection by Bcl-2 / Bcl-XL overexpression” value [8]?
The value was “neither Bcl-XL nor Bcl-2 overexpression provided any significant protection”.

What about the “induction of cell death” value [9] of the same substance?
The value was “induced cell death in the same range of concentrations”.

And the “activation of caspase activity” value [10]?
The value was “remained at the level of control”.

And the “inhibitory activity on CDK5/p25 (in words)” value (CDK5/p25)?
Its value is “marginal inhibitory activity”.

And the “inhibitory activity on CDK5/p25 (in words)” value (CDK5/p25; listed as 24)?
The value was “weak and gradually decreasing inhibitory activity”.

And the “effect of cell differentiation on induced cell death” value [11]?
Its value is “negligible effect”.

And the “effector caspase activation (DEVDase activity)” value [12]?
Its value is “fell consistently below the background”.

What about the “cell death (LDH release)” value (SH-SY5Y cells [13]) of the same substance?
The value was “most potent compound”.

And the “sensitivity of cell death to the presence of the caspase inhibitor Q-VD-OPh” value (SH-SY5Y cells [14]; 20 μM Q-VD-OPh, MTS 43 h after addition (Table 5))?
The value was “completely insensitive”.

What about the “concentration required to reduce cell survival (MTS reduction)” value (SH-SY5Y cells [14]; 48 h, IO, 5BIO, 6BIO, 7BIO compared (FIG. 3A)) of the same substance?
Its value is “most potent compound”.

And the cell cycle distribution (MDA-MB-231 cells; 24 h, FACS)?
The cell cycle distribution was “accumulation in G2/M and reduction of G0/G1”.

And the “cell proliferation by direct counting” value (MDA-MB-231 cells; 48 h exposure)?
Its value is “dose-dependent inhibition of cell proliferation”.

What about the “reversibility of the effect by removal of compound” value (MDA-MB-231 cells; medium replaced at 48 h) of the same substance?
Its value is “poorly if at all reversible”.
